# ChEMBL document CHEMBL5614413, “Design, synthesis and biological evaluation of amphiphilic benzopyran derivatives as potent antibacterial agents against multidrug-resistant bacteria” (Eur J Med Chem, 2024)
# The source made the active and inactive calls. No cut-off for these calls is given here.
# Tests used:
# [1] = test system: Staphylococcus aureus; test: (§1) Antibacterial activity against methicillin-resistant Staphylococcus aureus ATCC 43300 infected in sepsis mouse model assessed as decrease in IL-6 level in blood at 5 mg/kg pre-infected with bacteria for 1 hrs followed by continuous compound administration at 12 hrs intervals for 2 days; format: functional, organism-based; details: time 2.0 day
# [2] = test system: Staphylococcus aureus; test: as §1, with “reduction” for “decrease”, “bacterial load” for “IL-6 level”, “kidney” for “blood”, “days (reference value: 6.75 log10CFU/g)” for “days”; format: functional; details: time 2 day
# [3] = test system: Enterococcus faecalis; test: Antibacterial activity against vancomycin-susceptible Enterococcus faecalis ATCC 29212; format: functional
# [4] = test system: Pseudomonas aeruginosa; test: Antibacterial activity against penicillin-susceptible Pseudomonas aeruginosa ATCC 27853; format: functional
# [5] = test system: Staphylococcus aureus; test: as §1, with “reduction” for “decrease”, “pathological damages” for “IL-6 level”, “liver” for “blood”, “days by H and E staining based analysis” for “days”; format: functional, organism-based; details: time 2.0 day
# [6] = test system: Staphylococcus aureus; test: as §1, with “reduction” for “decrease”, “bacterial load” for “IL-6 level”, “days (reference value: 3.69 log10CFU/ml)” for “days”; format: functional; details: time 2 day
# [7] = test system: Staphylococcus aureus; test: as §1, with “reduction” for “decrease”, “number of surviving bacterial colonies” for “IL-6 level”, “liver” for “blood”, “days relative to control” for “days”; format: functional; details: time 2 day
# [8] = test system: Staphylococcus aureus; test: as §1, with “reduction” for “decrease”, “bacterial load” for “IL-6 level”, “liver” for “blood”, “days (reference value: 7.16 log10CFU/g)” for “days”; format: functional; details: time 2 day
# [9] = test system: Klebsiella pneumoniae; test: Antibacterial activity against Klebsiella pneumoniae ATCC 10031; format: functional
# [10] = test system: Staphylococcus aureus; test: as §1, with “reduction” for “decrease”, “pathological damages” for “IL-6 level”, “kidney” for “blood”, “days by H and E staining based analysis” for “days”; format: functional, organism-based; details: time 2.0 day
# [11] = test system: Staphylococcus aureus; test: as §1, with “reduction” for “decrease”, “bacterial load” for “IL-6 level”, “spleen” for “blood”, “days (reference value: 7.45 log10CFU/g)” for “days”; format: functional; details: time 2 day
# [12] = test system: Staphylococcus aureus; test: as §1, with “reduction” for “decrease”, “number of surviving bacterial colonies” for “IL-6 level”, “days relative to control” for “days”; format: functional; details: time 2 day
# [13] = test system: Staphylococcus aureus; test: as §1, with “reduction” for “decrease”, “pathological damages” for “IL-6 level”, “spleen” for “blood”, “days by H and E staining based analysis” for “days”; format: functional, organism-based; details: time 2.0 day
# [14] = test system: Bacillus subtilis; test: Antibacterial activity against penicillin-susceptible Bacillus subtilis ATCC 9372; format: functional
# [15] = test system: Staphylococcus aureus; test: as §1, with “reduction” for “decrease”, “number of surviving bacterial colonies” for “IL-6 level”, “kidney” for “blood”, “days relative to control” for “days”; format: functional; details: time 2 day
# [16] = test system: Staphylococcus aureus; test: Antibacterial activity against methicillin-resistant Staphylococcus aureus ATCC 43300 infected in sepsis mouse model assessed as decrease in TNF-alpha level in blood at 5 mg/kg pre-infected with bacteria for 1 hrs followed by continuous compound administration at 12 hrs intervals for 2 days; format: functional, organism-based; details: time 2.0 day
# [17] = test system: Staphylococcus aureus; test: as §1, with “reduction” for “decrease”, “number of surviving bacterial colonies” for “IL-6 level”, “spleen” for “blood”, “days relative to control” for “days”; format: functional; details: time 2 day
# [18] = test system: Acinetobacter baumannii; test: Antibacterial activity against Acinetobacter baumannii ATCC 19606; format: functional
# [19] = test system: Escherichia coli; test: Antibacterial activity against penicillin-susceptible Escherichia coli ATCC 25922; format: functional
# [20] = test system: Staphylococcus aureus; test: Bactericidal activity against methicillin-resistant Staphylococcus aureus ATCC 43300 by Mueller Hinton broth based assay; format: functional; details: time <= 6 hrs
# [21] = test system: Staphylococcus aureus; test: Selectivity ratio of MBC for bactericidal activity against methicillin-resistant Staphylococcus aureus ATCC 43300 preincubated with 50% human plasma upto 6 hrs to MBC for bactericidal activity against methicillin-resistant Staphylococcus aureus ATCC 43300; format: functional
# [22] = Selectivity index, ratio of HC50 for hemolytic activity in sheep RBC to MIC for antibacterial activity against methicillin-resistant Staphylococcus aureus ATCC 43300; format: toxicity; details: sheep red blood cells (erythrocytes), read-out: Selectivity Index
# [23] = test system: Staphylococcus aureus; test: Antibacterial activity against methicillin-resistant Staphylococcus aureus ATCC 43300; format: functional
# [24] = test system: Staphylococcus aureus; test: Bactericidal activity against methicillin-resistant Staphylococcus aureus ATCC 43300 assessed as bacterial eradication at 16 times of MIC measured at 8 hrs by time kill kinetics analysis relative to control; format: functional
# [25] = test system: Cell membrane; test: Disruption of cell membrane integrity in methicillin-resistant Staphylococcus aureus ATCC 43300 assessed as appearance of blue fluorescence by DAPI/PI staining based microscopic analysis; format: cell membranes
# [26] = test system: Cell membrane; test: Induction of cell membrane disruption in methicillin-resistant Staphylococcus aureus ATCC 43300 assessed as increase in DNA leakage; format: cell membranes
# [27] = test system: Staphylococcus aureus; test: Bacteriostatic activity against methicillin-resistant Staphylococcus aureus ATCC 43300 assessed as inhibition of bacterial growth at 2 times of MIC measured after 24 hrs by time-kill kinetic analysis; format: functional, organism-based
# [28] = test system: Staphylococcus epidermidis; test: Antibacterial activity erythromycin-susceptible Staphylococcus epidermidis ATCC 12228; format: functional
# [29] = test system: Staphylococcus aureus; test: Inhibition of biofilm formation in methicillin-resistant Staphylococcus aureus ATCC 43300 at 16 microg/ml relative to control; format: functional
# [30] = test system: Staphylococcus aureus; test: Bacteriostatic activity against methicillin-resistant Staphylococcus aureus ATCC 43300 assessed as inhibition of bacterial growth at 1 times of MIC measured after 24 hrs by time-kill kinetic analysis; format: functional, organism-based
# [31] = test system: Staphylococcus aureus; test: Disruption of preformed biofilm in methicillin-resistant Staphylococcus aureus ATCC 43300 assessed as eradication of biofilm at 8 microg/ml by crystal violet staining based analysis relative to control; format: functional; details: dose 8 µg/ml
# [32] = test system: Staphylococcus aureus; test: Bactericidal activity against methicillin-resistant Staphylococcus aureus ATCC 43300 in presence of 50% human plasma by Mueller Hinton broth based assay; format: functional
# [33] = test system: Staphylococcus aureus; test: Disruption of preformed biofilm in methicillin-resistant Staphylococcus aureus ATCC 43300 assessed as eradication of biofilm by crystal violet staining method; format: functional, organism-based; details: dose 2-64 µg/ml
# [34] = test system: Staphylococcus aureus; test: Antibacterial activity against erythromycin-susceptible Staphylococcus aureus ATCC 25923; format: functional
# [35] = test system: Staphylococcus aureus; test: Selectivity ratio of MBC for bactericidal activity against methicillin-resistant Staphylococcus aureus ATCC 43300 in presence of 50% human serum to MBC for bactericidal activity against methicillin-resistant Staphylococcus aureus ATCC 43300; format: functional
# [36] = test system: Staphylococcus aureus; test: Inhibition of biofilm formation in methicillin-resistant Staphylococcus aureus ATCC 43300; format: functional, organism-based; details: dose 2-32 µg/ml
# [37] = test system: Staphylococcus aureus; test: Antibacterial activity against penicillin-resistant Staphylococcus aureus ATCC 31007; format: functional
# [38] = test system: Cell membrane; test: Disruption of cell membrane in methicillin-resistant Staphylococcus aureus ATCC 43300 assessed as appearance of broken surface by scanning electron microscopic analysis; format: cell membranes
# [39] = test system: Cell membrane; test: Disruption of cell membrane integrity in methicillin-resistant Staphylococcus aureus ATCC 43300 assessed as appearance of red fluorescence by DAPI/PI staning based microscopic analysis; format: cell membranes
# [40] = test system: Cell membrane; test: Induction of cytoplasmic membrane permeabilization in methicillin-resistant Staphylococcus aureus ATCC 43300 assessed as increase fluorescence intensity at 16 microg/ml by PI staining based fluorescence analysis; format: cell membranes; details: dose 16.0 µg/ml
# [41] = test system: Staphylococcus aureus; test: Induction of ROS production in methicillin-resistant Staphylococcus aureus ATCC 43300 assessed as fold increase in ROS level at 32 microg/ml by DCFH-DA staining based analysis; details: dose 32 µg/ml
# [42] = test system: Cell membrane; test: Induction of cytoplasmic membrane depolarization in methicillin-resistant Staphylococcus aureus ATCC 43300 assessed as increase in fluorescence intensity at 2 microg/ml by DiSC3(5) dye-based fluorescence assay; format: cell membranes; details: dose 2.0 µg/ml
# [43] = test system: Cell membrane; test: Disruption of cell membrane in methicilin-resistant Staphylococcus aureus ATCC 43300 assessed as appearance of wrinkled cell membrane by scanning electron microscopic analysis; format: cell membranes
# [44] = test system: Staphylococcus aureus; test: Bactericidal activity against methicillin-resistant Staphylococcus aureus ATCC 43300 assessed as reduction in bacterial growth; format: functional, organism-based
# [45] = test system: Staphylococcus aureus; test: Inhibition of biofilm formation in methicillin-resistant Staphylococcus aureus ATCC 43300 at 2 microg/ml relative to control; format: functional
# [46] = test system: Staphylococcus aureus; test: Bactericidal activity against methicillin-resistant Staphylococcus aureus ATCC 43300 assessed as log reduction in bacterial growth at 16 times of MIC measured after 4 hrs by time killing analysis; format: functional
# [47] = test system: Staphylococcus aureus; test: Disruption of preformed biofilm in methicillin-resistant Staphylococcus aureus ATCC 43300 assessed as eradication of biofilm at 64 microg/ml by crystal violet staining based analysis relative to control; format: functional; details: dose 64 µg/ml
# [48] = test system: Staphylococcus aureus; test: Bactericidal activity against methicillin-resistant Staphylococcus aureus ATCC 43300 in presence of 50% human serum by Mueller Hinton broth based assay; format: functional
# [49] = test system: Cell membrane; test: Induction of cytoplasmic membrane depolarization in methicillin-resistant Staphylococcus aureus ATCC 43300 assessed as increase in fluorescence intensity by DiSC3(5) dye-based fluorescence assay; format: cell membranes
# [50] = test system: Staphylococcus aureus; test: Drug resistance, ratio of MIC for methicillin-resistant Staphylococcus aureus ATCC 43300 after 20 passages to MIC for methicillin-resistant Staphylococcus aureus ATCC 43300 during first exposure; format: functional
# [51] = test system: Cell membrane; test: Disruption of cell membrane in methicilin-resistant Staphylococcus aureus ATCC 43300 assessed as appearance of collapsed cell membrane by scanning electron microscopic analysis; format: cell membranes
# [52] = Hemolytic activity in sheep RBC; format: toxicity, cell-based, Ovis aries, Erythrocyte; details: sheep red blood cells (erythrocytes)
# [53] = test system: Staphylococcus aureus; test: Inhibition of biofilm formation in methicillin-resistant Staphylococcus aureus ATCC 43300 at 8 microg/ml relative to control; format: functional
# [54] = test system: Cell membrane; test: Induction of cell membrane disruption in methicillin-resistant Staphylococcus aureus ATCC 43300 assessed as increase in protein leakage; format: cell membranes
# [55] = test system: Staphylococcus aureus; test: Selectivity ratio of MBC for bactericidal activity against methicillin-resistant Staphylococcus aureus ATCC 43300 in presence of 50% human blood to MBC for bactericidal activity against methicillin-resistant Staphylococcus aureus ATCC 43300; format: functional
# [56] = test system: Staphylococcus aureus; test: Antibacterial activity against methicillin-resistant Staphylococcus aureus ATCC 43300 at 1/2 times of MIC measured after 20 passage; format: functional, organism-based
# [57] = test system: Staphylococcus aureus; test: Bactericidal activity against methicillin-resistant Staphylococcus aureus ATCC 43300 in presence of 50% human blood by Mueller Hinton broth based assay; format: functional; details: ATCC 43300, Blood, time <= 6 hrs
compound,measurement,setting,value
CN[C@H](CC(C)C)C(=O)N[C@H]1C(=O)N[C@@H](CC(N)=O)C(=O)N[C@H]2C(=O)N[C@H]3C(=O)N[C@H](C(=O)N[C@H](C(=O)O)c4cc(O)cc(O)c4-c4cc3ccc4O)[C@H](O)c3ccc(c(Cl)c3)Oc3cc2cc(c3O[C@@H]2O[C@H](CO)[C@@H](O)[C@H](O)[C@H]2O[C@H]2C[C@](C)(N)[C@H](O)[C@H](C)O2)Oc2ccc(cc2Cl)[C@H]1O [VANCOMYCIN],Activity,[1],Active
same,Activity,[2],2.73 log10CFU/g
same,MIC,[3],2 µg/mL
same,MIC,[4],> 128 µg/mL
same,Activity,[5],Active
same,Activity,[6],1.5 log10CFU/ml
same,Activity,[7],99.8%
same,Activity,[8],2.7 log10CFU/g
same,MIC,[9],128 µg/mL
same,Activity,[10],Active
same,Activity,[11],2.33 log10CFU/g
same,Activity,[12],96.5%
same,Activity,[13],Active
same,MIC,[14],0.5 µg/mL
same,Activity,[15],99.8%
same,Activity,[16],Active
same,Activity,[17],99.6%
same,MIC,[18],16 µg/mL
same,MIC,[19],128 µg/mL
CCN(CC)CCCNCCCOc1ccc(/C=C/C(=O)c2ccc3c(c2OC)C=CC(C)(CCC=C(C)C)O3)cc1 (stereo not drawn),MBC,[20],32 µg/mL
same,selectivity ratio,[21],<2
same,selectivity ratio,[22],135
same,MIC,[23],2 µg/mL
same,Activity,[24],100%
same,Activity,[25],Active
same,Activity,[26],Active
same,Activity,[27],Active
same,MIC,[28],1 µg/mL
same,MIC,[3],2 µg/mL
same,MIC,[4],64 µg/mL
same,inhibition at 16 µg/mL,[29],> 92%
same,Activity,[30],Active
same,Activity,[31],19.12%
same,MBC,[32],32 µg/mL
same,Activity,[33],Dose-Dependent Effect
same,MIC,[34],2 µg/mL
same,selectivity ratio,[35],2
same,MIC,[9],4 µg/mL
same,inhibition,[36],Dose-Dependent Effect
same,MIC,[37],1 µg/mL
same,Activity,[38],Active
same,Activity,[39],Active
same,Activity,[40],Active
same,fold change (FC),[41],14
same,Activity,[42],inactive
same,Activity,[43],Active
same,Activity,[44],Dose-Dependent Effect
same,MIC,[14],1 µg/mL
same,inhibition at 2 µg/mL,[45],21.2%
same,log(activity),[46],6
same,MIC,[18],8 µg/mL
same,Activity,[47],>40%
same,MBC,[48],32 µg/mL
same,Activity,[49],Dose-Dependent Effect
same,MIC,[19],2 µg/mL
same,Ratio,[50],2
same,Activity,[51],Active
same,HC50,[52],270 µg/mL
same,inhibition at 8 µg/mL,[53],91.6%
same,Activity,[54],Active
same,selectivity ratio,[55],2
same,Activity,[56],Active
same,MBC,[57],64 µg/mL
